Results reported in the supplement of paper PMC5908809.

Experiments:
Assay in all cases: relative IC50 (inflection point of fitted viability curve, relative to fitted max inhibition); higher = less sensitive
Settings in all cases: 72 h
[1] = test system: normal primary NK cells, pool 3 (3 donors) (IL-2 2.5 ng/mL)
Experimental: (§1)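 Drug sensitivity and resistance testing: 5 concentrations over a 10,000-fold range, 72 h at 37 °C, viability by CellTiter-Glo normalised to DMSO and benzethonium chloride controls. IC50 is the inflection point of a logistic fit (min fixed at 0, max fitted), so it is relative to the fitted maximal inhibition. Kept only where fitted max inhibition is at least 50%.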

NK-92 (IL-2 2.5 ng/mL) = test system: NK-92 (IL-2 2.5 ng/mL)
Experimental: as §1

KAI3 (IL-2 2.5 ng/mL) = test system: KAI3 (IL-2 2.5 ng/mL)
Experimental: as §1

KHYG-1 (IL-2 2.5 ng/mL) = test system: KHYG-1 (IL-2 2.5 ng/mL)
Experimental: as §1

NK-YS (IL-2 2.5 ng/mL) = test system: NK-YS (IL-2 2.5 ng/mL)
Experimental: as §1

IMC-1 (IL-2 20 ng/mL) = test system: IMC-1 (IL-2 20 ng/mL)
Experimental: as §1

YT (IL-2 2.5 ng/mL) = test system: YT (IL-2 2.5 ng/mL)
Experimental: as §1

DERL-7 (IL-2 2.5 ng/mL) = test system: DERL-7 (IL-2 2.5 ng/mL)
Experimental: as §1

[2] = test system: normal primary NK cells, pool 2 (3 donors) (IL-2 2.5 ng/mL)
Experimental: as §1

[3] = test system: normal primary NK cells, pool 1 (3 donors) (IL-2 2.5 ng/mL)
Experimental: as §1

[4] = test system: normal primary NK cells, pool 1 (3 donors), resting (IL-2 0 ng/mL)
Experimental: as §1

NKL (IL-2 2.5 ng/mL) = test system: NKL (IL-2 2.5 ng/mL)
Experimental: as §1

SNK-6 (IL-2 2.5 ng/mL) = test system: SNK-6 (IL-2 2.5 ng/mL)
Experimental: as §1

SMILES | relative IC50 [1] | relative IC50 (NK-92 (IL-2 2.5 ng/mL)) | relative IC50 (KAI3 (IL-2 2.5 ng/mL)) | relative IC50 (KHYG-1 (IL-2 2.5 ng/mL)) | relative IC50 (NK-YS (IL-2 2.5 ng/mL)) | relative IC50 (IMC-1 (IL-2 20 ng/mL)) | relative IC50 (YT (IL-2 2.5 ng/mL)) | relative IC50 (DERL-7 (IL-2 2.5 ng/mL)) | relative IC50 [2] | relative IC50 [3] | relative IC50 [4] | relative IC50 (NKL (IL-2 2.5 ng/mL)) | relative IC50 (SNK-6 (IL-2 2.5 ng/mL))
CCNC(=O)CCC/C=C\C[C@@H]1[C@@H](/C=C/[C@@H](O)CCc2ccccc2)[C@H](O)C[C@@H]1O [Bimatoprost] | > 5500 nM | > 5500 nM | > 5500 nM | > 5500 nM | > 5500 nM | > 5500 nM | > 5500 nM | > 5500 nM | > 5500 nM |  |  |  | 
COc1cc2nccc(Oc3ccc(NC(=O)C4(C(=O)Nc5ccc(F)cc5)CC4)cc3)c2cc1OC [Cabozantinib] |  |  |  |  |  |  |  |  |  | > 1000 nM |  |  | 
Cc1cc(Nc2ncc(Cl)c(Nc3ccccc3S(=O)(=O)C(C)C)n2)c(OC(C)C)cc1C1CCNCC1 [Ceritinib] |  |  |  |  | > 2500 nM | > 2500 nM |  |  |  | 616 nM | 464 nM | > 2500 nM | 
CCN(CC)CCCC(C)Nc1ccnc2cc(Cl)ccc12 (configuration not stated) [Chloroquine] | 9060 nM |  |  |  |  | 33400 nM |  |  | 14300 nM |  |  |  | 
N.N.[Cl][Pt][Cl] [Cisplatin] | 15600 nM |  |  |  |  | 515 nM |  |  | 14800 nM |  |  |  | 
CN(C)/N=N/c1[nH]cnc1C(N)=O [Dacarbazine] |  | > 10000 nM |  |  |  |  | 2970 nM | > 10000 nM | > 10000 nM |  | > 10000 nM |  | 
COc1cc2ncnc(Nc3ccc(F)c(Cl)c3)c2cc1NC(=O)/C=C/CN1CCCCC1 [Dacomitinib] |  |  |  |  |  |  |  |  |  |  | 404 nM |  | 
C#Cc1cccc(Nc2ncnc3cc(OCCOC)c(OCCOC)cc23)c1 [Erlotinib] |  |  | 1300 nM |  |  |  |  |  |  |  | 3360 nM |  | 
CC(C)C(=O)Nc1ccc([N+](=O)[O-])c(C(F)(F)F)c1 [Flutamide] |  |  | > 10000 nM | > 10000 nM |  |  |  |  |  | > 10000 nM |  |  | 
COc1cc2c(Oc3ccc(NC(=O)C4(C(=O)Nc5ccc(F)cc5)CC4)cc3F)ccnc2cc1OCCCN1CCOCC1 [Foretinib] |  |  |  |  | 191 nM |  |  | 369 nM |  |  |  |  | 
Nc1ccn([C@@H]2O[C@H](CO)[C@@H](O)C2(F)F)c(=O)n1 [Gemcitabine] |  | 2.77 nM | 5.17 nM | 2.14 nM | 4.67 nM | 3.08 nM | 15.3 nM | 10.9 nM |  |  |  | 0.73 nM | 6.48 nM
CC(C)n1nc(-c2ccc3oc(N)nc3c2)c2c(N)ncnc21 [INK128] |  | 21.7 nM | 22.8 nM | 124 nM | 51 nM |  | 28.2 nM | 15.1 nM |  |  |  | 8.91 nM | 
Cc1ccc(NC(=O)c2ccc(CN3CCN(C)CC3)cc2)cc1Nc1nccc(-c2cccnc2)n1 [Imatinib] |  | 2230 nM | 3230 nM | 3080 nM | 2920 nM | 3400 nM | 2740 nM | 2190 nM |  | 1650 nM | 1980 nM | 3600 nM | 4290 nM
C/C(=C\c1csc(C)n1)[C@@H]1C[C@@H]2O[C@]2(C)CCC[C@H](C)[C@H](O)[C@@H](C)C(=O)C(C)(C)[C@@H](O)CC(=O)N1 [Ixabepilone] |  | 398 nM | 383 nM | 301 nM | 348 nM | 360 nM | 308 nM | 335 nM |  | > 1000 nM | > 1000 nM | 357 nM | 348 nM
Nc1cccc2c1CN(C1CCC(=O)NC1=O)C2=O (configuration not stated) [Lenalidomide] |  |  | 17100 nM |  |  |  |  | > 100000 nM |  |  | 6060 nM |  | 3460 nM
COc1cc2nccc(Oc3ccc(NC(=O)NC4CC4)c(Cl)c3)c2cc1C(N)=O [Lenvatinib] |  |  |  |  |  |  |  |  | > 2500 nM |  |  |  | > 2500 nM
c1ccc([C@H]2CN3CCSC3=N2)cc1 [Levamisole] | > 10000 nM | > 10000 nM | > 10000 nM | > 10000 nM | > 10000 nM |  | > 10000 nM |  | > 10000 nM |  |  |  | 
O=NN(CCCl)C(=O)NC1CCCCC1 [Lomustine] | > 10000 nM | > 10000 nM |  |  |  | > 10000 nM |  | > 10000 nM | > 10000 nM | > 10000 nM |  | > 10000 nM | 
